The text below walks through data of patent publication US20250339426A1, “GCN2 MODULATOR FOR TREATING CANCER” (HIBERCELL, INC., priority 2022, published 2025).

Assay [1] deals with 786-O (human renal cell carcinoma cancer cells). Briefly: In vivo tumor growth inhibition, 786-O xenograft. The arrangement: species or system BALB/c nude mice. The following applies: HC-7366 single agent, 3 mg/kg twice daily (FIG. 58). Here is the method: 786-O (human renal cell carcinoma cancer cells): Female 6-8 weeks old BALB/c nude mice were inoculated subcutaneously on the right flank with 786-O tumor cells (5×10^6) in 0.1 ml of RPMI1640 medium without serum for tumor development. […] For the DC101 combination study, DC101 (murine monoclonal anti-VEGFR2 antibody) was dosed at 15 mg/kg twice a week by intraperitoneal injection.
(§1) [formula] • 2.2.2 Tumor Measurements: The measurement of tumor size was conducted three times weekly with a caliper and recorded. The tumor volume (mm^3) was estimated using the formula: TV=a×b^2/2, where “a” and “b” is long and short diameters of a tumor, respectively. Tumor volume was calculated using the formula [tumor volume (mm^3)=π/6×length×width^2).
(§2) Regression was calculated using the formula=100×ΔT/T initial, if ΔT<0. Animals with 0 mm^3 tumor volume (no measurable tumor) for three consecutive measurements were considered as complete responders and animals with 50% tumor regressions were partial responders.
Female 6-8 weeks old BALB/c nude mice were inoculated subcutaneously on the right flank with 786-O tumor cells (5×10^6) in 0.1 ml of RPMI1640 medium without serum for tumor development (see Example 6). […]

The test system of a further assay is ATF4, ASNS in FaDu cells. In words: Jess protein analysis, FaDu cells. Type of assay: cell-based, human. The note with it: 0.01 and 0.1 μM, 72 hr, sgControl vs sgGCN2. As to the method: Cell lysates were obtained from FaDu sgControl or sgGCN2 cells treated with HC-7366 (0, 0.01, 0.1 and 1 μM) for 72 hr. Ice cold 1x radioimmunoprecipitation assay (RIPA) lysis buffer supplemented with protease and phosphatase inhibitors was added to the cell pellets, on ice. After 30 min on ice the cell lysates were centrifuged at 4° C., 12,000 rpm for 15 minutes and the supernatant was collected. Protein concentration was determined using BCA kit. The cell lysates were mixed with 5×SDS loading buffer and denatured at 95° C. for 5 minutes. 1 μg lysate was run on Jess capillary and results were analyzed by compass simple western software. The following primary antibodies were used: p-GCN2 T899 (Abcam #ab75836), GCN2 (Cell Signaling #3302), ATF4 (Cell Signaling #11815) and ASNS (Proteintech #14681). Anti-rabbit secondary antibody was from ProteinSimple #042-206.

The subject of assay [2] is MV4-11 (human AML cancer cells). Briefly: In vivo tumor growth inhibition, MV4-11 xenograft. The arrangement: species or system BALB/c nude mice. As to the method: MV4-11 (human AML cancer cells): Female 6-8 weeks old BALB/c nude mice were inoculated subcutaneously on the right flank with MV4-11 tumor cells (1×10^7) in RPMI 1640 without serum for tumor development. The treatments were started when the mean tumor size reached approximately 150 mm^3 at Day 13 after cell inoculation and continued until end of study by twice daily oral gavage dosing of HC-7366 at listed doses (vehicle, 0.3 mg/kg HC-7366, 1 mg/kg HC-7366, 3 mg/kg HC-7366, 10 mg/kg HC-7366, or 30 mg/kg HC-7366, FIG. 20). For venetoclax combination study, venetoclax was dissolved in 0.5% carboxymethylcellulose (CMC) and co-administered at 50 mg/kg dose once daily (see Example 8).
as §1, §2
MV4-11 tumors were collected at the end of the venetoclax combination study described in Example 6. Tumor growth curves are provided of MV4-11 tumors treated with single agent HC-7366 and venetoclax or combination (FIG. 43).

The test system of assay [3] is NCI-H1975 (human non-small cell lung cancer cells). In words: In vivo tumor growth inhibition, NCI-H1975 xenograft. On the set-up: species or system Athymic Nude-Foxn1nu mice. The note with it: HC-7366 3 mg/kg twice daily oral. Here is the method: NCI-H1975 (human non-small cell lung cancer cells): Female 7-8 weeks old Athymic Nude-Foxn1nu mice were inoculated subcutaneously on the right flank with NCI-H1975 tumor cells (2.5×10^6) in 0.1 ml of RPMI1640 medium without serum for tumor development. Single agent HC-7366 was dosed at 3 mg/kg, osimertinib at 2.5 mg/kg and dacomitinib at 15 mg/kg. HC-7366 was combined with either osimertinib or dacomitinib. The vehicle for the groups was 0.5% methyl cellulose. The treatments were started when the mean tumor size reached approximately 205 mm^3 at Day 22 post inoculation and continued until end of study. HC-7366 was given twice daily by oral gavage whereas osimertinib or dacomitinib were administered once a day by oral gavage (FIGS. 131 and 133).
as §1, §2

The test system of another assay is FaDu cells. In words: Metabolomics in wild type and GCN2 CRISPR knockout FaDu cells. The note with it: 0.1 μM. Type of assay: cell-based, human. As to the method:
Wild type and GCN2 CRISPR knockout FaDu cells were treated with 0.1 μM for 9 hours, and metabolomics were evaluated.

In assay [4] the test system is KG-1 (human AML cancer cells). Briefly: In vivo tumor growth inhibition, KG-1 xenograft. On the set-up: species or system NOD SCID mice. The note with it: 1 and 3 mg/kg twice daily oral. As to the method:
KG-1 (human AML cancer cells): Female 6-8 weeks old NOD SCID mice were inoculated subcutaneously on the right flank with KG1 tumor cells (5×10^6) in RPMI 1640 without serum for tumor development. The treatments were started when the mean tumor size reached approximately 194 mm^3 at Day 20 after cell inoculation and continued until end of study by twice daily oral gavage dosing of HC-7366 at listed doses (vehicle, 0.3 mg/kg HC-7366, 1 mg/kg HC-7366, 3 mg/kg HC-7366, 10 mg/kg HC-7366, or 30 mg/kg HC-7366, FIG. 17).
as §1, §2

For the compound `CNC(=O)c1ncn2cc(-c3c(F)ccc(NS(=O)(=O)c4cc(Cl)cnc4OC)c3F)ncc12` [HC-7366, 6-(3-((5-chloro-2-methoxypyridine)-3-sulfonamido)-2,6-difluorophenyl)-N-methylimidazo[1,5-a]pyrazine-1-carboxamide], the TGI % in assay [1] is around 78%. Besides, the “levels of ATF4 and ASNS” value in the assay with ATF4, ASNS in FaDu cells is listed as “GCN2-dependent increase”. Also, the TGI was 45% in assay [2] (30 mg/kg twice daily oral); 34% in assay [2] (venetoclax combination study, HC-7366 as a single agent, dose not stated); 59% in assay [3]. The ATF4 entry in the assay with FaDu cells (GCN2 dependent manner) was “induced”. In addition, the “level of many amino acids” value in the assay on FaDu cells (wild type FaDu cells, 9 h, GCN2-dependent) is on record as “enhanced level”. For the same compound, the “effect on tumor growth” value in assay [4] is “tumor stasis”.
